Source: ChEMBL document CHEMBL1201862, “PubChem BioAssay data set” (2004)
Values belong to the compound of their own block, whether it stands above or below them. Calls of active or inactive are those of the source.

Legend:
[1] = target: Prothrombin (Bos taurus, UniProt P00735); experiment: thrombin inhibition, dose response, biochemical, fluorescence polarization, uHTS hits (AID 602369); type: functional
[2] = target: 72 kDa type IV collagenase (Homo sapiens, UniProt P08253); experiment: Dose Response validation of uHTS RPN11 inhibitor hits using a MMP-2 Fluorescence assay.; type: functional
Chain of 72 kDa type IV collagenase (P08253 whole entry): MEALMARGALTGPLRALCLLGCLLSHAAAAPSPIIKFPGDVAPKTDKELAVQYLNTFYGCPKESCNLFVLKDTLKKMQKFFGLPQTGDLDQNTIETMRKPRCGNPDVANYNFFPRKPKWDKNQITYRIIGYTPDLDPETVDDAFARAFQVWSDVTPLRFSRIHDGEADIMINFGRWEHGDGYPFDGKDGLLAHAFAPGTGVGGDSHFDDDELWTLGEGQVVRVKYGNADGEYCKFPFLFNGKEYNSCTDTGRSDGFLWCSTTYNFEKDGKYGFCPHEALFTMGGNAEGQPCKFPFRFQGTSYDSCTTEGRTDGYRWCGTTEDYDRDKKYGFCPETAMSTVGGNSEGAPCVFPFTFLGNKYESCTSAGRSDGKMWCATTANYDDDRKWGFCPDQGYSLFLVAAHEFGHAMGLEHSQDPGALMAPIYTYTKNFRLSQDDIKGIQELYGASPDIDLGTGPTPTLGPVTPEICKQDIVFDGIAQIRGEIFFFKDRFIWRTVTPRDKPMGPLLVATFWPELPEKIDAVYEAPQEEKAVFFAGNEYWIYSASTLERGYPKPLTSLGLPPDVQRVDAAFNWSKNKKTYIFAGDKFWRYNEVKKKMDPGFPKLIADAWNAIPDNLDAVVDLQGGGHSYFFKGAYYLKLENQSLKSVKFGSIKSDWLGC

[3] = target: 26S proteasome non-ATPase regulatory subunit 14 (Homo sapiens, UniProt O00487); experiment: inhibition of proteasome subunit RPN11 – biochemical, fluorescence polarization, uHTS hits, confirmation (AID 602368); type: functional
Chain of 26S proteasome non-ATPase regulatory subunit 14 (O00487 whole entry): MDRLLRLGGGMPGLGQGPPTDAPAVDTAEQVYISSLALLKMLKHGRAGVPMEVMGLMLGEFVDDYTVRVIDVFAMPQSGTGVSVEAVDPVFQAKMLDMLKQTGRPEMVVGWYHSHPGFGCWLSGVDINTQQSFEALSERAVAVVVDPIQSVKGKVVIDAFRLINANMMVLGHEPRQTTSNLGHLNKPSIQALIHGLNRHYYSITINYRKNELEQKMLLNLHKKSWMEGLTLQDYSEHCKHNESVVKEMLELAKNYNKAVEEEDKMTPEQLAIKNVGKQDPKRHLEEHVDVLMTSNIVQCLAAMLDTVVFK

[4] = target: T1, Microphthalmia-associated transcription factor (Homo sapiens, UniProt O75030); experiment: TRPM1 promoter luciferase signal decrease, dose response, MITF inhibitor project, cell-based, SK-MEL-5, cherry-picked, set 3 (AID 493073); type: functional
T1 sequence (O75030 whole entry): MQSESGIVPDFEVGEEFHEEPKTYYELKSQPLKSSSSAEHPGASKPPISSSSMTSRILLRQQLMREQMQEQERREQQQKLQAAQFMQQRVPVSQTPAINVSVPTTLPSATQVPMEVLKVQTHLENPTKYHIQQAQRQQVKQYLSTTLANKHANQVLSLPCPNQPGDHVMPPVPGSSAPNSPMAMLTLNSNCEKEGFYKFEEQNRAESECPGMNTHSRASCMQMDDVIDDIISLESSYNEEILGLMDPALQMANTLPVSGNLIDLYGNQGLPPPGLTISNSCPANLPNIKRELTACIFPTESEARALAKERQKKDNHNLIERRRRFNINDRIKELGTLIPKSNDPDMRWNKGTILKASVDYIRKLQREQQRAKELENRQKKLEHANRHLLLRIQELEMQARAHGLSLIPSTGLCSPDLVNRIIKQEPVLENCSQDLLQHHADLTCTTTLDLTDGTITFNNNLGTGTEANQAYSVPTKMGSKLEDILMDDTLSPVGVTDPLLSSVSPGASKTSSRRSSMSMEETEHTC

[5] = target: Cytochrome P450 2C19 (Homo sapiens, UniProt P33261); experiment: Cytochrome panel assay with activity outcomes. Panel member name: p450-cyp2c19 Compounds with AC50 equal or less than 10 uM are considered active; type: functional; details: read-out: AC50
Chain of Cytochrome P450 2C19 (P33261 whole entry): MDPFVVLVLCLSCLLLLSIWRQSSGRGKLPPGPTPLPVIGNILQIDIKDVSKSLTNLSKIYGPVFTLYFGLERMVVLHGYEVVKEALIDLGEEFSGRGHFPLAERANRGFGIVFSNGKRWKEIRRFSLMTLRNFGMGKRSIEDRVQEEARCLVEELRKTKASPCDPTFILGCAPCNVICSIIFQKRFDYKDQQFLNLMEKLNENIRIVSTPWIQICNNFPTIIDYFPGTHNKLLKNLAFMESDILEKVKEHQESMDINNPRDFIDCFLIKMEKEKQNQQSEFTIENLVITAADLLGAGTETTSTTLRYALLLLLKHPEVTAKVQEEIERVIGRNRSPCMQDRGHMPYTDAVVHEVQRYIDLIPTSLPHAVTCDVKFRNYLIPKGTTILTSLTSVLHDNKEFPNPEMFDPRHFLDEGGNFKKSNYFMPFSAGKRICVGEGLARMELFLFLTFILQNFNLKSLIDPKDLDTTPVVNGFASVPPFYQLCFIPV

[6] = target: Cytochrome P450 2D6 (Homo sapiens, UniProt P10635);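 further: CYP2D6 member of a cytochrome P450 panel assay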
Chain of Cytochrome P450 2D6 (P10635 whole entry): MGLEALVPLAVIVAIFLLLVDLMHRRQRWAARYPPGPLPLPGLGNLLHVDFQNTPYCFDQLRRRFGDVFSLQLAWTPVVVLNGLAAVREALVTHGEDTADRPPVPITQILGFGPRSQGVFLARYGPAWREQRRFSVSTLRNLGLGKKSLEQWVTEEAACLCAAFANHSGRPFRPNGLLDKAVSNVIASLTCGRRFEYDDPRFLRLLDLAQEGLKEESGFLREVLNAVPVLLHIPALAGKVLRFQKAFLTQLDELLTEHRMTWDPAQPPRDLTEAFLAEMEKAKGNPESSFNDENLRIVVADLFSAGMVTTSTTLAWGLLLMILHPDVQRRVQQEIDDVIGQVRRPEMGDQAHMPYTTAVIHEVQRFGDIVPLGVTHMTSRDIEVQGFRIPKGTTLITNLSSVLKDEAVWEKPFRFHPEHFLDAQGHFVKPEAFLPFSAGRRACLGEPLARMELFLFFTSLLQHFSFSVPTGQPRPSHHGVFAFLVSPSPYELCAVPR

[7] = target: DNA dC->dU-editing enzyme APOBEC-3G (Homo sapiens, UniProt Q9HC16); experiment: Dose Response confirmation of small molecule APOBEC3G DNA Deaminase Inhibitors via a fluorescence-based single-stranded DNA deaminase assay. [Related pubchem assays (depositor defined):AID493012, AID493028]; type: functional
Chain of DNA dC->dU-editing enzyme APOBEC-3G (Q9HC16 whole entry): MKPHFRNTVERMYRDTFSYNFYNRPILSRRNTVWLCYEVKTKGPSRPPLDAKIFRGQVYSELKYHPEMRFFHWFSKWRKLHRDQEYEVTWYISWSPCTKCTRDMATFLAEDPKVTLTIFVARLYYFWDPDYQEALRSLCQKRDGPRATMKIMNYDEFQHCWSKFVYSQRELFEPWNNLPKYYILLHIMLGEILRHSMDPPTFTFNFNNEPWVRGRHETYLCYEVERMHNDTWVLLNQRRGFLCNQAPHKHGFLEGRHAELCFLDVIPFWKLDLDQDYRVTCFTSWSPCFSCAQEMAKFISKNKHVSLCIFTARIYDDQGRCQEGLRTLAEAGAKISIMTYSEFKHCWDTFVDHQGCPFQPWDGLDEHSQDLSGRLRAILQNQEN

[8] = target: T2, Sentrin-specific protease 8 (Homo sapiens, UniProt Q96LD8); type: functional
T2 sequence (Q96LD8 whole entry): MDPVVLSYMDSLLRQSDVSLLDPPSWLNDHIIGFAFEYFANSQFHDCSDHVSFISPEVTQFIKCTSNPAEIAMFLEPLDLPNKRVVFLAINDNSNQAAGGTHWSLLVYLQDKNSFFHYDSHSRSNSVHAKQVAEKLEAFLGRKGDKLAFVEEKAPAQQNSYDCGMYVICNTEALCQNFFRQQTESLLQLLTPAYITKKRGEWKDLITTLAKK

[9] = target: T3, Heat shock factor protein 1 (Mus musculus, UniProt P38532); experiment: HSF1 potentiators in luciferase reporter cells, confirmation, cell-based, NIH3T3, luminescence, dose retest (AID 435004); type: functional;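 further: stress induced by proteasome inhibitor MG132 added 30 min after compound; luciferase reporter driven by HSF1 response element in NIH3T3 cells; actives raise luminescence as potentiators of the MG132 stress response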
T3 sequence (P38532 whole entry): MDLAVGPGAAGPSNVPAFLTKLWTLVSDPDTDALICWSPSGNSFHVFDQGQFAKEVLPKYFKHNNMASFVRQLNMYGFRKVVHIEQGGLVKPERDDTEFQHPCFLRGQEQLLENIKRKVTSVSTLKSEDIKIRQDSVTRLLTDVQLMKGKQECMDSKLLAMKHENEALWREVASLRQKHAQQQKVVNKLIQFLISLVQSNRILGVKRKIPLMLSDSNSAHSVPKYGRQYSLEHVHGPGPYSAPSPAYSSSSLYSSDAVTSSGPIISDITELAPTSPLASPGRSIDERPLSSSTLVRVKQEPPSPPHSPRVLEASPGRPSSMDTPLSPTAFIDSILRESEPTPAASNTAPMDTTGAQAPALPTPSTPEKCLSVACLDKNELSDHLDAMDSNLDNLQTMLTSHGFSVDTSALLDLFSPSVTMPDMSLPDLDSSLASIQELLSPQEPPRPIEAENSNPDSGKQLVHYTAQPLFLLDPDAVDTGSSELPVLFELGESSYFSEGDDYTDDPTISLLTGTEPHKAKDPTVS

[10] = target: T2, Sentrin-specific protease 8; type: functional; remark: listed apart in the source
[11] = target: T4, Mannose-6-phosphate isomerase (Homo sapiens, UniProt P34949); experiment: human PMI inhibitors, high substrate, primary screen, biochemical, fluorescence intensity, high mannose 6-phosphate (AID 1220)
T4 sequence (P34949 whole entry): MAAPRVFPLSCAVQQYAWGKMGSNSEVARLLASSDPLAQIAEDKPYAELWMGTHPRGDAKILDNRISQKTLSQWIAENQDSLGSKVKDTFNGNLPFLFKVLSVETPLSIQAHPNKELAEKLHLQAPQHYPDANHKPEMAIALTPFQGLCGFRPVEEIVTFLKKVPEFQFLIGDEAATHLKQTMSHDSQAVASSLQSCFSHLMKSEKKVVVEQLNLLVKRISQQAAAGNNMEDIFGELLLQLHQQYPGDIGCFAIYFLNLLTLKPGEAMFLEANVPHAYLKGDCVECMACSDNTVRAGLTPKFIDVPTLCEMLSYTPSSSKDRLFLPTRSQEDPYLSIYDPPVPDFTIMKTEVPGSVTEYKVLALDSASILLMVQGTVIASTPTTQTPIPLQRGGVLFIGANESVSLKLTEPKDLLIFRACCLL

IC50 [1]: 48.4 µM (active)
IC50 [2]: > 100 µM (inactive)
IC50 [3]: 38.8 µM (active)
SMILES: Cc1[nH]c2ccccc2c1/C=C/C(=O)c1ccncc1

AC50 [4]: 4.09 µM (active)
SMILES: C=CCn1c(C)cc(C2=NN=C(NC(C)(C)C)SC2)c1C

AC50 [5]: 10 µM (inconclusive)
AC50 [6]: inconclusive
SMILES: CC(=O)Nc1ccccc1C(=O)C(=O)O

SMILES: CCOC(=O)c1sc(N)c(C(=O)Nc2ccccc2OC)c1C
IC50 [7]: 68.9 µM (active)

EC50 [9]: > 260 µM (inactive)
SMILES: CC(=O)C1=C(C)NC2(O)c3ccccc3C(=O)C12O (stereo not given)
IC50 [8]: 11.1 µM (active)
IC50 [10]: 22.4 µM (active)

AC50 [6]: inconclusive
SMILES: Cc1cccc(OCCn2c(S(=O)(=O)O)nc3ccccc32)c1

SMILES: Cc1cc(N2C(=O)Cc3ccccc3C2=O)ccc1C(C)C
IC50 [8]: > 100 µM (inactive)
IC50 [10]: 4.5 µM (active)

SMILES: O=C(NC1=NC(=O)C(F)(C(F)(F)F)S1)NC1CCCCC1 (stereo not given)
IC50 [11]: > 50 µM (not active)
IC50 [7]: 32.7 µM (active)
